Data: patent US20240245679A1, “AGENT FOR TREATING INFECTIOUS DISEASES AGAINST MUTANT VIRUSES OF NOVEL CORONAVIRUS” (FUJIFILM TOYAMA CHEMICAL CO., LTD., priority 2021, published 2024)

Experiments:
Assay in all cases: microbe, parasite or virus in culture
Type in all cases: cell-based, SARS-COV-2
[1] = tested on: hCoV-19/Japan/TY2-312-P1/2020 (B.1.1 line)
[2] = tested on: hCoV-19/Japan/TY7-501/2021 (P.1 line); conditions: Severe acute respiratory syndrome coronavirus 2, VeroE6/TMPRSS2; 40 hours
[3] = tested on: hCoV-19/Japan/TY7-503/2021 (P.1 line); conditions: Severe acute respiratory syndrome coronavirus 2, Vero 76, read-out: EC90 value (90% effective concentration)
SARS-2 Omicron = conditions: Severe acute respiratory syndrome coronavirus 2, Vero C1008; 72 hours
[4] = tested on: hCoV-19/England/204820464/2020 (B.1.1.7 line); conditions: Severe acute respiratory syndrome coronavirus 2, Vero 76, read-out: EC90 value (90% effective concentration)
USA_WA1/2020 (A line) = conditions: Severe acute respiratory syndrome coronavirus 2, Vero 76, read-out: EC90 value (90% effective concentration)
[5] = tested on: hCoV-19/Japan/TY8-612/2021 (B.1.351 line); conditions: Severe acute respiratory syndrome coronavirus 2, VeroE6/TMPRSS2; 40 hours
[6] = tested on: hCoV-19/Japan/TY11-330-P1/2021 (B.1.617.1 line); conditions: Severe acute respiratory syndrome coronavirus 2, VeroE6/TMPRSS2; 40 hours
[7] = tested on: hCoV-19/Japan/TY11-927-P1/2021 (B.1.617 line); conditions: Severe acute respiratory syndrome coronavirus 2, VeroE6/TMPRSS2; 40 hours
SARS-2 WA1/2020 = conditions: Severe acute respiratory syndrome coronavirus 2, Vero C1008; 72 hours
SARS-2-9017 (delta) = conditions: Severe acute respiratory syndrome coronavirus 2, Vero C1008; 72 hours
[8] = tested on: hCoV-19/Japan/QK002/2020 (B.1.1.7 line); conditions: Severe acute respiratory syndrome coronavirus 2, VeroE6/TMPRSS2; 40 hours

Question: With `NC(=O)c1nc(F)cnc1O` [Compound A, 6-fluoro-3-hydroxy-2-pyrazinecarboxamide] as the compound, how does the EC90 ([1]; 40 hours) read?
Answer: 466 µM

Question: What about the EC90 ([1]; Severe acute respiratory syndrome coronavirus 2, VeroE6/TMPRSS2, 40 h) of the same compound?
Answer: 302 µM

Question: And the EC90 [2]?
Answer: 306 µM

Question: What about the EC90 [3] of the same compound?
Answer: 190 µM

Question: And the EC90 (SARS-2 Omicron)?
Answer: 62.5 to 125 µM

Question: What about the EC90 [4] of the same compound?
Answer: 83 µM

Question: And the EC90 (USA_WA1/2020 (A line))?
Answer: 68 µM

Question: And the EC90 [5]?
Answer: 223 µM

Question: And the EC90 [6]?
Answer: 491 µM

Question: And the EC90 [7]?
Answer: 294 µM

Question: And the EC90 (SARS-2 WA1/2020)?
Answer: 125 to 250 µM

Question: And the EC90 (SARS-2-9017 (delta))?
Answer: 125 to 250 µM

Question: And the EC90 [8]?
Answer: 359 µM
